Test results reported in patent US7935530B2, “Polyamides with tail structures capable of binding DNA” (California Institute of Technology, priority 2006, dated 2011).

Assays:
[1] = test system: 5′-ATACGT-3′ sequence within the HRE of the VEGF promoter; conditions: values quoted from earlier publications (refs 16, 20); cited from earlier work
U251 cells = assay: Microarray analysis of gene expression (Affymetrix Human Genome U133 Plus 2.0), DFO-induced U251 cells; assay type: cell-based; conditions: for Number of transcripts affected (p ≦ 0.01): down-regulated (fold change ≦ −2.0) / Number of transcripts affected (p ≦ 0.01): down-regulated (fold change ≦ −4.0) / Number of transcripts affected (p ≦ 0.01): up-regulatd (fold change ≧ 4.0) / Number of transcripts affected (p ≦ 0.01): up-regulated (fold change ≧ 2.0): DFO +; for Number of transcripts whose expression is affected by more than 2-fold (p≦0.01): polyamide 1 μM, echinomycin 100 nM, normalized to DFO-treated controls
Procedure: One potential limitation to the use of hairpin-polyamides for gene regulation is binding site size and specificity for match versus mismatch sites, which may result in prohibitively large numbers of affected genes. To examine this, the global effects of polyamide treatment on hypoxia-induced gene expression were measured using Affymetrix Human Genome U133 Plus 2.0 Arrays containing oligonucleotide sequences representing more than 50,000 transcripts. To establish a benchmark for comparison, the effects of HIF-1α siRNA and echinomycin were also measured. Experiments were conducted in triplicate, and gene expression levels normalized to DFO-treated controls. Cells not treated with DFO were normalized to DFO-treated controls.
U251 cells were plated in 12-well plates at a density of 40-60×10^3 cells per well. Media, time course, DFO, polyamide, echinomycin, and siRNA treatments were as described above. RNA was isolated as previously described. Further sample preparation for microarray experiments was carried out at the Millard and Muriel Jacobs Gene Expression Facility at Caltech. Labeled mRNA was hybridized to Affymetrix Human 133 arrays according to established protocols. Gene expression was analyzed using Resolver (Rosetta Biosoftware, Seattle).

[2] = test system: two 5′-WGWCW-3′ sites approximately 35 basepairs 3′ of the HRE; assay: Quantitative DNase I footprint titration on pGL2-VEGF-Luc, sites 3′ of the HRE; assay type: binding
Procedure: (§1) Quantitative DNase I footprint titration experiments were used to measure the binding affinities of polyamides 11.1, 11.2, 11.3, and echinomycin on 5′ ^32P-labeled fragments of pGL2-VEGF-Luc and pCSJ-FLT1 containing promoter sequences containing the HREs of VEGF and FLT1, respectively. Quantitative DNase I footprint titration experiments were conducted as reported previously (56).

[3] = test system: 5′-AGACA-3′ site 16 basepairs 5′ to the FLT1 HRE; assay: Quantitative DNase I footprint titration on pCSJ-FLT1, site 5′ to the FLT1 HRE; assay type: binding
Procedure: as §1

Row | Ka approximately 35 basepairs 3′ of the HRE, most likely two 5′-WGWCW-3′ sites [2] | Ka at a 5′-AGACA-3′ site 16 basepairs 5′ to the FLT1 HRE [3] | SMILES | Ka at the VEGF HRE, previously found [1] | Number of transcripts affected (p ≦ 0.01): down-regulated (fold change ≦ −2.0) (U251 cells) | Number of transcripts affected (p ≦ 0.01): down-regulated (fold change ≦ −4.0) (U251 cells) | Number of transcripts affected (p ≦ 0.01): up-regulatd (fold change ≧ 4.0) (U251 cells) | Number of transcripts affected (p ≦ 0.01): up-regulated (fold change ≧ 2.0) (U251 cells) | Number of the 31 previously identified direct HIF-1 target transcripts (induced at least 1.5-fold by DFO) down-regulated / inhibited (U251 cells; DFO-induced U251) | Number of the 297 transcripts induced by DFO at least 4-fold that are inhibited by ≧2-fold (p≦0.01) (U251 cells; DFO-induced U251) | Share of the 297 transcripts induced by DFO that were inhibited (U251 cells; DFO-induced U251) | Number of transcripts whose expression is affected by more than 2-fold (p≦0.01) (U251 cells; DFO-induced U251) | Affected transcripts (2-fold, p≦0.01) after eliminating all transcripts affected by DFO alone (1.5-fold, p≦0.01) (U251 cells; U251 microarray) | Share of interrogated / assayed transcripts affected (U251 cells; U251 microarray)
1 |  |  | CN(CCCNC(=O)c1cccc(C(=O)O)c1)CCCNC(=O)c1cc(NC(=O)c2cc(NC(=O)c3nc(NC(=O)c4cc(NC(=O)[C@H](N)CCNC(=O)c5nc(NC(=O)c6cc(NC(=O)c7cc(NC(=O)c8sccc8Cl)cn7C)cn6C)cn5C)cn4C)cn3C)cn2C)cn1C [Polyamide 11] | 2.6 (±0.4)×10^10 M^−1 | 1,575 | 336 | 57 | 709 | 14 | 69 | Approximately 23% | 2,284 | 1,626 | less than 5%
2 | 7.6 (±1.0)×10^8 M^−1 | 2.7 (±0.4)×10^9 M^−1 | CN(CCCNC(=O)c1cccc(C(=O)O)c1)CCCNC(=O)c1cc(NC(=O)c2cc(NC(=O)c3cc(NC(=O)c4nc(NC(=O)[C@H](N)CCNC(=O)c5cc(NC(=O)c6cc(NC(=O)c7nc(NC(=O)c8nccn8C)cn7C)cn6C)cn5C)cn4C)cn3C)cn2C)cn1C [Polyamide 23] |  |  |  |  |  |  |  |  |  |  | 
3 |  |  | CS[C@H]1SC[C@H]2C(=O)N(C)[C@@H](C(C)C)C(=O)OC[C@@H](NC(=O)c3cnc4ccccc4n3)C(=O)N[C@@H](C)C(=O)N(C)[C@@H]1C(=O)N(C)[C@@H](C(C)C)C(=O)OC[C@@H](NC(=O)c1cnc3ccccc3n1)C(=O)N[C@@H](C)C(=O)N2C [echinomycin, reference compound] |  | 7,426 | 4,133 | 413 | 3,480 | 31 | 263 |  | 10,906 |  | 
